# Read-outs that look alike come from different tables or passages of the source.
# Legend:
# [1] = tested on: histone deacetylase (HDAC); experiment: HDAC Fluorimetric Cellular Activity Assay, HeLa cell extracts; assay type: cell-based; conditions: different concentrations
# Method: Since FM19G11 was capable of affecting the degree of acetylation of histone H3 and therefore the conformation of chromatin, it was evaluated if FM19G11 favored the transfer of acetyl groups to histone H3 or, on the contrary, prevented histone H3 from being deacetylated. Both effects would cause an increase of the degree of acetylation of histone H3. Immunoprecipitation assays were performed with an antibody recognizing acetyltransferase p300 and then assays for measuring the acetyltransferase activity by means of using the kit "HAT Colorimetric Assay" (BioVision) were carried out. This method consists of detecting NADH since peptide acetylation causes the release of the free form of Coenzyme A, which serves as an essential coenzyme for producing NADH.
# The protein extracts were previously immunoprecipitated with an anti-p300 antibody and the acetyltransferase activity measured by the detection of NADH. The evaluation of the histone deacetylase (HDAC) activity (Figure 34 B) was carried out with protein extracts of HeLa cells treated with different concentrations of FM19G11. As a positive control, a fixed concentration of TSA (1 µM) was included and extracts of untreated cells were used as a control. The experiments were carried out following the instructions of the Biomol kit for detecting histone deacetylase activity (HDAC Fluorimetric Cellular Activity Assay, Biomol, Cat. No. AK-503). […]
# HCT116/p53-/- cells = experiment: cell viability by ATP quantification in colon cancer cells; assay type: cell-based, human; conditions: 48 hours, 0.5-1000 µM
# Method: To determine the effects of FM19G11 on human colon cancer cells (HCT116 and HT29), cell viability assays were carried out in HT29, HCT116/p53^+/+ and HCT116/p53^-/- cells by means of quantifying the ATP which associates with metabolically active cells.
# HIF = experiment: luciferase cell assay based on the HIF response elements (HRE), HeLa 9XHRE-LUC; parameters: species or system human; conditions: Homo sapiens, HeLa
# Excerpt: In order to identify direct inhibitors of the activity of HIF, a stable recombinant line was first constructed from the cervical tumor line, known in scientific literature as HeLa, which contained the deoxyribonucleic acid (DNA) sequences of the region located between positions -985 and -951 of the human vascular endothelial growth factor (hVEGF), repeated nine times (9X) and fused to the luciferase reporter gene (LUC). This plasmid, provided by Dr. Manuel Ortiz de Landazuri from the Hospital de La Princesa of Madrid, called 9XHRE-LUC, was prepared using a commercial kit (Endofree Maxi-Prep; Qiagen, Inc., Valencia, CA). The transfections were performed with FuGene6 (Roche, cat.1814443) according to the manufacturer's instructions, the µg DNA: µg FuGene ratio was 1:3. The transfected cell lines were generated by cotransfection with the vector pCMV-Hygrom which expressed a hygromycin resistance gene in mammalian cells, allowing the selection of the transfected clones. After 48 hours, the growth medium was substituted with fresh medium containing 100 µg/ml hygromycin (Sigma), the clones resistant to the antibiotic were collected and analyzed by means of RT-PCR to select the clone with the desired construct. Routinely, the HeLa 9XHRE-LUC cell line was maintained in exponential growth by means of performing subcultures in DMEM (Invitrogen-Life Technologies, Inc., Carlsbad, CA), supplemented with 10% inactivated fetal bovine serum (Whittacker Bioproducts), penicillin (50 IU/ml), streptomycin (50 µg/ml) (Invitrogen-Life Technologies, Inc., Carlsbad, CA). The cells were cultured at 37°C with a humidified atmosphere containing 5% CO2 and 300 nM Desferoxamine (DFX; Sigma St. Louis, MO).
# The compounds of the Collection of the CIPF, coming from a selection of commercial collections of Sigma-Aldrich, were solubilized in DMSO at a final concentration of 5 mM and preserved at -80°C. The concentration of these compounds in the luciferase assay was 1 mcM finally in the well of the multi-well plate in which the reaction was carried out. The luciferase assays were performed in white 96-well plates (Valtecknova ref. 3917), using the kit Bright-Glo™ Luciferase Assay System (Promega, Inc., Madison, WI) following the instructions supplied by the manufacturer.
# According to the methodology of the cell assay based on the HIF response elements (Example 1), the intermediate compounds of the synthesis and several synthesized analogs were tested to obtain the SAR of FM19G11.
# HIF-1α = experiment: Western blot of HIF-1alpha in dental pulp stem cells; assay type: cell-based, human; conditions: 0.5 µM, physical hypoxia
# Excerpt: The culture medium used was Low-Glucose DMEM supplemented with 10% fetal bovine serum. The human dental pulp mesenchymal stem line [Gronthos S, et al., "Postnatal human dental pulp stem cells (DPSCs) in vitro and in vivo" Proc Natl Acad Sci U S A, 2000 Dec 5; 97(25):13625-30.; Gronthos S et al.,." Stem cell properties of human dental pulp stem cells" J Dent Res, 2002 Aug; 81(8):531-5], obtained from human third molars from adults (19-29 years of age), was provided by the Cardioregeneration Dept. of the CIPF. The cells were seeded at a density of 2000 cells/cm^2, and when they reached a 90% confluence they were subcultured again by means of trypsinization.
# The dental pulp cells were seeded at 2000 cells/cm^2 in 21 cm^2 plates. […]
# epSPCs = experiment: proliferation (ATP, CellTiter-Glo) and neurosphere formation of epSPCs; assay type: cell-based, rat; conditions: for rates of proliferation (ATP): 500 nM
# Method: The accumulation of ATP, a metabolite directly related to the increase of metabolic activity and therefore with the proliferative activity, was determined with the commercial CellTiter-Glo® luminescent cell viability kit (Promega, Madison, WI).
compound,measurement,setting,value
"Cc1ccc(C(=O)COC(=O)c2cccc(NC(=O)c3ccc([N+](=O)[O-])cc3[N+](=O)[O-])c2)cc1 [FM19G11, 2-oxo-2-(p-tolyl)ethyl 3-((2,4-dinitro)benzamido)benzoate]",activity as a histone deacetylase inhibitor,[1],did not show activity
same,"sensitivity (cell viability, ATP) compared to HCT116/p53+/+ or HT29",HCT116/p53-/- cells,less sensitive
same,IC50,HIF,0.08 µM
same,IC50,"HIF; 6 h, read-out: IC50 from dose response curve (Figure 2 B)",0.08 µM
same,IC50,HIF; read-out: IC50 HRE (µM),0.08 µM
same,expression of HIF-1α,HIF-1α,inhibited
same,rates of proliferation (ATP),"epSPCs; 48 hours, ~20% O2",increases the rates of proliferation
same,rates of proliferation (ATP),epSPCs; hypoxic conditions (1% O2),not reproduced
same,formation of neurospheres,epSPCs; normoxic conditions (20% O2),favors the formation of neurospheres

# — patent EP2292587A1, “PHARMACEUTICAL COMPOSITION FOR INHIBITING THE TRANSCRIPTION FACTOR INDUCIBLE BY HYPOXIA, MODULATORS OF PATHOLOGICAL PROCESSES OF ANGIOGENESIS, ONCOGENESIS, INFLAMMATION, APOPTOSIS, AND CELLULAR THERAPY” (Fundacion De La Comunidad Valenciana Centro De …, priority 2008, dated 2009)
